# Results as given in US8808879B2, “Phototherapy devices and methods comprising substituted carbazole compounds” (Nitto Denko Corporation, priority 2010, dated 2014).
# How the values were obtained:
# actinic keratoses = assay: Photodynamic treatment of actinic keratoses lesions with topical photosensitiser pro-drug and red OLED; settings: 20% topical solution, illuminated with red OLED about 14-18 hours after application
# [1] = test system: CHO-K1 (Chinese Hamster Ovarian Cancer, ATCC, CRL-2243) cell line; assay: Ex-vivo photodynamic efficacy study of ALA with red OLED light (microscopy, PpIX fluorescence, MTT cell viability)
# [2] = test system: age-related macular degeneration; assay: Verteporphin photodynamic therapy of age-related macular degeneration with red OLED; format: in vivo, person; settings: about 6 mg/m^2 intravenously, retina illuminated with red OLED about 15 minutes after start of infusion
# pathological myopia = assay: Verteporphin photodynamic therapy of pathological myopia with red OLED; format: in vivo, person; settings: about 6 mg/m^2 intravenously, retina illuminated with red OLED about 15 minutes after start of infusion
# [3] = test system: presumed ocular histoplasmosis; design: species or system person; settings: in vivo, iv
compound,measurement,setting,value
Cl.NCC(=O)CCC(=O)O [5-Aminolevulinic acid HCl],number or severity of the lesions after the treatment,actinic keratoses,reduced
"NCC(=O)CCC(=O)O [ALA, 5-aminolevulinic acid]",cytotoxicity at 1000 µM,"[1]; Cricetulus griseus, CHO-K1, light or radiation study, read-out: cell destroyed compared with reference (MTT cell viability)",~90%
same,cell morphology under optical microscope after light irradiation,"[1]; after 25 J/cm^2 red light irradiation, leafy type cells transform to droplet type (FIG. 9)",significant and irreversible cell death
same,concentration of ALA required,[1]; at the light dose of 27 J/cm^2,at least 1 mM
C=Cc1c(C)c2cc3nc(cc4[nH]c(cc5nc(cc1[nH]2)C(C)=C5CCC(=O)O)c(CCC(=O)OC)c4C)[C@@]1(C)C3=CC=C(C(=O)OC)[C@H]1C(=O)OC [Verteporphin],patient's vision after treatment,[2],stabilized
same,patient's vision after treatment,pathological myopia,stabilized
same,patient's vision after treatment,[3],stabilized
